# Data reported in PMC9784969, “SARS-CoV-2 Inhibitors Identified by Phenotypic Analysis of a Collection of Viral RNA-Binding Molecules” (Pharmaceuticals, 2022).
# Where two headings read alike, the source gives them in different places.
# How the values were obtained:
# 5_SL2+3 RNA [1] = experiment: ligand-based 1H NMR (1D, CPMG, wLOGSY); type: binding, SARS-CoV-2
# in vitro = details: human, uninfected 293T-ACE2 cells
# HIV-1 = details: ref 3 (Table S1 list: Simba-Lahuasi et al., Unpublished results); cited from earlier work
# ORF7b RNA = experiment: ligand-based 1H NMR (1D, CPMG, wLOGSY); type: binding, SARS-CoV-2
# 5_SL2+3 RNA [2] = experiment: RNA-based 1H NMR (TOCSY) titration; type: binding, SARS-CoV-2; details: RNA:ligand up to 1:4
# [3] = test system: subdomain IIB of the rev recognition element (RRE) of the HIV-1 genomic RNA; details: ref 3 (Table S1 list: Simba-Lahuasi et al., Unpublished results); cited from earlier work
# 3_SL1+2 RNA = type: binding
# Vero E6 cells = details: read-out: SARS-CoV-2 CC50, uninfected, MTT
# [4] = average of aliphatic protons, RNA:ligand 1:100 (clomiphene) or 1:50 (trim, qz2)
# [5] = average of aromatic protons, RNA:ligand 1:100 (clomiphene) or 1:50 (trim, qz2)
smiles,measurement,setting,value
NCCCc1cn(C(c2ccccc2)(c2ccccc2)c2ccccc2)cn1 [trim],CPMG variation,5_SL2+3 RNA [1]; [4],31.0%
same,LB,5_SL2+3 RNA [1]; [4],19.1%
same,LOGSY factor,5_SL2+3 RNA [1]; [4],49.4%
same,CPMG variation,5_SL2+3 RNA [1]; [5],39.0%
same,LB,5_SL2+3 RNA [1]; [5],15.9%
same,LOGSY factor,5_SL2+3 RNA [1]; [5],131.1%
same,CPMG variation,"5_SL2+3 RNA [1]; trim peak A, RNA:ligand 1:50",32.9%
same,LB,"5_SL2+3 RNA [1]; trim peak A, RNA:ligand 1:50",15.7%
same,LOGSY factor,"5_SL2+3 RNA [1]; trim peak A, RNA:ligand 1:50",55.3%
same,CPMG variation,"5_SL2+3 RNA [1]; trim peak B, RNA:ligand 1:50",36.9%
same,LB,"5_SL2+3 RNA [1]; trim peak B, RNA:ligand 1:50",20.8%
same,LOGSY factor,"5_SL2+3 RNA [1]; trim peak B, RNA:ligand 1:50",43.4%
same,CPMG variation,"5_SL2+3 RNA [1]; trim peak C, RNA:ligand 1:50",40.3%
same,LB,"5_SL2+3 RNA [1]; trim peak C, RNA:ligand 1:50",14.9%
same,LOGSY factor,"5_SL2+3 RNA [1]; trim peak C, RNA:ligand 1:50",131%
same,CPMG variation,"5_SL2+3 RNA [1]; trim peak D, RNA:ligand 1:50",38.6%
same,LB,"5_SL2+3 RNA [1]; trim peak D, RNA:ligand 1:50",16.0%
same,LOGSY factor,"5_SL2+3 RNA [1]; trim peak D, RNA:ligand 1:50",126%
same,CPMG variation,"5_SL2+3 RNA [1]; trim peak E, RNA:ligand 1:50",38.9%
same,LB,"5_SL2+3 RNA [1]; trim peak E, RNA:ligand 1:50",16.7%
same,LOGSY factor,"5_SL2+3 RNA [1]; trim peak E, RNA:ligand 1:50",135%
same,CC50 at 2 days,in vitro,23.5 µM
same,Previous target virus activity,HIV-1,yes
same,CPMG variation,ORF7b RNA; [4],38.7%
same,LB,ORF7b RNA; [4],13.5%
same,LOGSY factor,ORF7b RNA; [4],103%
same,CPMG variation,ORF7b RNA; [5],30.2%
same,LB,ORF7b RNA; [5],4.23%
same,LOGSY factor,ORF7b RNA; [5],208%
same,CPMG variation,"ORF7b RNA; trim peak A, RNA:ligand 1:50",34.9%
same,LB,"ORF7b RNA; trim peak A, RNA:ligand 1:50",15.8%
same,LOGSY factor,"ORF7b RNA; trim peak A, RNA:ligand 1:50",75.4%
same,CPMG variation,"ORF7b RNA; trim peak B, RNA:ligand 1:50",44.0%
same,LB,"ORF7b RNA; trim peak B, RNA:ligand 1:50",12.4%
same,LOGSY factor,"ORF7b RNA; trim peak B, RNA:ligand 1:50",132%
same,CPMG variation,"ORF7b RNA; trim peak C, RNA:ligand 1:50",18.3%
same,LB,"ORF7b RNA; trim peak C, RNA:ligand 1:50",-3.43%
same,LOGSY factor,"ORF7b RNA; trim peak C, RNA:ligand 1:50",210%
same,CPMG variation,"ORF7b RNA; trim peak D, RNA:ligand 1:50",41.8%
same,LB,"ORF7b RNA; trim peak D, RNA:ligand 1:50",7.94%
same,LOGSY factor,"ORF7b RNA; trim peak D, RNA:ligand 1:50",218%
same,CPMG variation,"ORF7b RNA; trim peak E, RNA:ligand 1:50",20.4%
same,LB,"ORF7b RNA; trim peak E, RNA:ligand 1:50",4.46%
same,LOGSY factor,"ORF7b RNA; trim peak E, RNA:ligand 1:50",196%
same,TOCSY perturbations,5_SL2+3 RNA [2],larger variations than clomiphene or qz2
same,Previous target RNA binding,[3],yes
same,CPMG variation,3_SL1+2 RNA; [4],18.3%
same,LB,3_SL1+2 RNA; [4],14.0%
same,LOGSY factor,3_SL1+2 RNA; [4],33.1%
same,CPMG variation,3_SL1+2 RNA; [5],25.0%
same,LB,3_SL1+2 RNA; [5],10.2%
same,LOGSY factor,3_SL1+2 RNA; [5],87.9%
same,CPMG variation,"3_SL1+2 RNA; trim peak A, RNA:ligand 1:50",18.5%
same,LB,"3_SL1+2 RNA; trim peak A, RNA:ligand 1:50",11.8%
same,LOGSY factor,"3_SL1+2 RNA; trim peak A, RNA:ligand 1:50",32.1%
same,CPMG variation,"3_SL1+2 RNA; trim peak B, RNA:ligand 1:50",23.8%
same,LB,"3_SL1+2 RNA; trim peak B, RNA:ligand 1:50",15.1%
same,LOGSY factor,"3_SL1+2 RNA; trim peak B, RNA:ligand 1:50",34.2%
same,CPMG variation,"3_SL1+2 RNA; trim peak C, RNA:ligand 1:50",23.6%
same,LB,"3_SL1+2 RNA; trim peak C, RNA:ligand 1:50",7.46%
same,LOGSY factor,"3_SL1+2 RNA; trim peak C, RNA:ligand 1:50",80.8%
same,CPMG variation,"3_SL1+2 RNA; trim peak D, RNA:ligand 1:50",25.2%
same,LB,"3_SL1+2 RNA; trim peak D, RNA:ligand 1:50",9.70%
same,LOGSY factor,"3_SL1+2 RNA; trim peak D, RNA:ligand 1:50",92.6%
same,CPMG variation,"3_SL1+2 RNA; trim peak E, RNA:ligand 1:50",26.4%
same,LB,"3_SL1+2 RNA; trim peak E, RNA:ligand 1:50",14.1%
same,LOGSY factor,"3_SL1+2 RNA; trim peak E, RNA:ligand 1:50",90.5%
same,CC50,Vero E6 cells,> 89.8 µM
